Experimental data reported in ChEMBL document CHEMBL5579846, “Synthesis of thiazolidine-2,4-dione tethered 1,2,3-triazoles as α-amylase inhibitors: In vitro approach coupled with QSAR, molecular docking, molecular dynamics and ADMET studies” (Eur J Med Chem, 2024).

Target: T1, Alpha amylase (Homo sapiens, UniProt P0DUB6)
T1 sequence (P0DUB6 whole entry): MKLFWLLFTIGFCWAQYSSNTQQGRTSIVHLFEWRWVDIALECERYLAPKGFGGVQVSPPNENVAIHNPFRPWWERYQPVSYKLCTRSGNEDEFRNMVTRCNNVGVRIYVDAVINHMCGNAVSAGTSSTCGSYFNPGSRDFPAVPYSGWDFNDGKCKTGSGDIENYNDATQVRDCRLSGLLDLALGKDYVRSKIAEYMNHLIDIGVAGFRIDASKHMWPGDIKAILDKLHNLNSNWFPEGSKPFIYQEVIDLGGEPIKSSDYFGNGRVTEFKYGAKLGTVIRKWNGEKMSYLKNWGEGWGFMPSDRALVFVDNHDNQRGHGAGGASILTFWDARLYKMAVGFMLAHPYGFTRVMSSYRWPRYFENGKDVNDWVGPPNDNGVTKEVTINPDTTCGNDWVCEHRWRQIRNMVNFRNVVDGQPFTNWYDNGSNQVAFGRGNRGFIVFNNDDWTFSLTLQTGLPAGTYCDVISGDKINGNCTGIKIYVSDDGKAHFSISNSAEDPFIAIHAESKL
Test: Inhibition of alpha-amylase (unknown origin) using 1% starch as substrate preincubated for 30 mins followed by substrate addition and measured after 30 mins by colorimetric analysis
Assay type: protein assay

Row | Compound | IC50 [µM] | pIC50
1 | CN(C)/C=C1\SC(=O)N(Cc2cn(Cc3ccccc3)nn2)C1=O | 80 | 7.095
2 | Cc1cccc(-n2cc(CN3C(=O)S/C(=C\N(C)C)C3=O)nn2)c1 | 61 | 7.215
3 | CN(C)/C=C1\SC(=O)N(Cc2cn(-c3ccnc4cc(Cl)ccc34)nn2)C1=O | 40 | 7.399
4 | CCCCn1cc(CN2C(=O)S/C(=C\N(C)C)C2=O)nn1 | 58 | 7.24
5 | CN(C)/C=C1\SC(=O)N(Cc2cn(-c3ccc([N+](=O)[O-])cc3)nn2)C1=O | 59 | 7.227
6 | COc1ccc(-n2cc(CN3C(=O)S/C(=C\N(C)C)C3=O)nn2)cc1 | 53 | 7.276
7 | COc1cccc(-n2cc(CN3C(=O)S/C(=C\N(C)C)C3=O)nn2)c1 | 69 | 7.164
8 | CN(C)/C=C1\SC(=O)N(Cc2cn(-c3ccc(C(F)(F)F)cc3)nn2)C1=O | 84 | 7.077
9 | CN(C)/C=C1\SC(=O)N(Cc2cn(CC(=O)c3ccc(Br)cc3)nn2)C1=O | 78 | 7.108
10 | C#CCN1C(=O)S/C(=C\N(C)C)C1=O | 139 | 6.859
11 | CCc1ccccc1-n1cc(CN2C(=O)S/C(=C\N(C)C)C2=O)nn1 | 49 | 7.307
12 | CN(C)/C=C1\SC(=O)N(Cc2cn(-c3ccccc3Cl)nn2)C1=O | 91 | 7.039
13 | CN(C)/C=C1\SC(=O)N(Cc2cn(Cc3ccc(Cl)cc3Cl)nn2)C1=O | 45 | 7.349
14 | CN(C)/C=C1\SC(=O)N(Cc2cn(-c3cccc(C(F)(F)F)c3)nn2)C1=O | 55 | 7.258
15 | CN(C)/C=C1\SC(=O)N(Cc2cn(-c3ccc(F)cc3)nn2)C1=O | 93 | 7.031
16 | CN(C)/C=C1\SC(=O)N(Cc2cn(-c3ccccc3)nn2)C1=O | 99 | 7.003
17 | CN(C)/C=C1\SC(=O)N(Cc2cn(-c3cccc(Cl)c3Cl)nn2)C1=O | 60 | 7.222
18 | CN(C)/C=C1\SC(=O)N(Cc2cn(-c3cccc(Cl)c3)nn2)C1=O | 66 | 7.182
19 | Cc1cc(C)cc(-n2cc(CN3C(=O)S/C(=C\N(C)C)C3=O)nn2)c1 | 66 | 7.182
20 | Cc1ccc(C)c(-n2cc(CN3C(=O)S/C(=C\N(C)C)C3=O)nn2)c1 | 93 | 7.032
21 | Cc1ccc(-n2cc(CN3C(=O)S/C(=C\N(C)C)C3=O)nn2)c(C)c1 | 48 | 7.318
22 | CN(C)/C=C1\SC(=O)N(Cc2cn(-c3ccccc3C(F)(F)F)nn2)C1=O | 48 | 7.319
23 | CC(C)c1ccc(-n2cc(CN3C(=O)S/C(=C\N(C)C)C3=O)nn2)cc1 | 54 | 7.268
24 | CN(C)/C=C1\SC(=O)N(Cc2cn(-c3ccc(Cl)cc3)nn2)C1=O | 98 | 7.01
25 | CCc1ccc(-n2cc(CN3C(=O)S/C(=C\N(C)C)C3=O)nn2)cc1 | 68 | 7.169
26 | COc1ccccc1-n1cc(CN2C(=O)S/C(=C\N(C)C)C2=O)nn1 | 65 | 7.185
